The values below come from US9796711B2, “Substituted pyrazolo[3,4-b]pyridin-6-carboxylic acids and method of use” (AbbVie S.àr.l., priority 2015, dated 2017).

Experiment [1] deals with T1, ΔF508-CFTR (Homo sapiens, UniProt P13569, DEL508-508).
T1 construct: host or cells: CFBE41o-, doxycycline-inducible
In words: CFTR cell surface levels using HRP-tagged ΔF508-CFTR expressing CFBE cells, in the presence of a co-corrector. In kind it is cell-based. The essentials:
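Cells were seeded with 0.5 μg/mL doxycycline and held 68 h at 37 °C. Test compounds plus 3 μM co-corrector (final 0.1% DMSO) were then added for 20 h at 33 °C. Washed cells received HRP substrate, and luminescence was normalized between DMSO and 3 μM co-corrector controls.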

In experiment [2] the target is T1, ΔF508-CFTR. In words: CFTR cell surface levels using HRP-tagged ΔF508-CFTR expressing CFBE cells, intrinsic corrector capacity. Format: cell-based. The essentials:
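Here the cells express ΔF508-CFTR with horseradish peroxidase inserted in extracellular loop 4, so only rescued channel at the surface gives luminescent signal. Compounds act on their own, 20 h at the reduced temperature of 33 °C; values are percent activity relative to DMSO and a 3 μM corrector.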

Setting [3] is: HRP-tagged ΔF508-CFTR expressing CFBE cells, in the presence of 3 μM co-corrector.
The mark [4] stands for this setting: HRP-tagged ΔF508-CFTR expressing CFBE cells, in the presence of 3 μM co-corrector, read-out: EC50.
Setting [5] is: HRP-tagged ΔF508-CFTR CFBE41o- cells, compounds alone (intrinsic corrector capacity), 20 hours at 33° C., positive control 3 μM corrector.
The mark [6] stands for this setting: HRP-tagged ΔF508-CFTR CFBE41o- cells, compounds alone (intrinsic corrector capacity), 20 hours at 33° C., read-out: EC50.
[7] abbreviates: HRP-tagged ΔF508-CFTR expressing CFBE cells, intrinsic corrector capacity (no co-corrector), 33° C., 20 hours.
Where [8] appears, read: HRP-tagged ΔF508-CFTR expressing CFBE cells, intrinsic corrector capacity (no co-corrector), 33° C., 20 hours, read-out: EC50.

T1 sequence (P13569 with tags, fused parts or gaps DEL508-508): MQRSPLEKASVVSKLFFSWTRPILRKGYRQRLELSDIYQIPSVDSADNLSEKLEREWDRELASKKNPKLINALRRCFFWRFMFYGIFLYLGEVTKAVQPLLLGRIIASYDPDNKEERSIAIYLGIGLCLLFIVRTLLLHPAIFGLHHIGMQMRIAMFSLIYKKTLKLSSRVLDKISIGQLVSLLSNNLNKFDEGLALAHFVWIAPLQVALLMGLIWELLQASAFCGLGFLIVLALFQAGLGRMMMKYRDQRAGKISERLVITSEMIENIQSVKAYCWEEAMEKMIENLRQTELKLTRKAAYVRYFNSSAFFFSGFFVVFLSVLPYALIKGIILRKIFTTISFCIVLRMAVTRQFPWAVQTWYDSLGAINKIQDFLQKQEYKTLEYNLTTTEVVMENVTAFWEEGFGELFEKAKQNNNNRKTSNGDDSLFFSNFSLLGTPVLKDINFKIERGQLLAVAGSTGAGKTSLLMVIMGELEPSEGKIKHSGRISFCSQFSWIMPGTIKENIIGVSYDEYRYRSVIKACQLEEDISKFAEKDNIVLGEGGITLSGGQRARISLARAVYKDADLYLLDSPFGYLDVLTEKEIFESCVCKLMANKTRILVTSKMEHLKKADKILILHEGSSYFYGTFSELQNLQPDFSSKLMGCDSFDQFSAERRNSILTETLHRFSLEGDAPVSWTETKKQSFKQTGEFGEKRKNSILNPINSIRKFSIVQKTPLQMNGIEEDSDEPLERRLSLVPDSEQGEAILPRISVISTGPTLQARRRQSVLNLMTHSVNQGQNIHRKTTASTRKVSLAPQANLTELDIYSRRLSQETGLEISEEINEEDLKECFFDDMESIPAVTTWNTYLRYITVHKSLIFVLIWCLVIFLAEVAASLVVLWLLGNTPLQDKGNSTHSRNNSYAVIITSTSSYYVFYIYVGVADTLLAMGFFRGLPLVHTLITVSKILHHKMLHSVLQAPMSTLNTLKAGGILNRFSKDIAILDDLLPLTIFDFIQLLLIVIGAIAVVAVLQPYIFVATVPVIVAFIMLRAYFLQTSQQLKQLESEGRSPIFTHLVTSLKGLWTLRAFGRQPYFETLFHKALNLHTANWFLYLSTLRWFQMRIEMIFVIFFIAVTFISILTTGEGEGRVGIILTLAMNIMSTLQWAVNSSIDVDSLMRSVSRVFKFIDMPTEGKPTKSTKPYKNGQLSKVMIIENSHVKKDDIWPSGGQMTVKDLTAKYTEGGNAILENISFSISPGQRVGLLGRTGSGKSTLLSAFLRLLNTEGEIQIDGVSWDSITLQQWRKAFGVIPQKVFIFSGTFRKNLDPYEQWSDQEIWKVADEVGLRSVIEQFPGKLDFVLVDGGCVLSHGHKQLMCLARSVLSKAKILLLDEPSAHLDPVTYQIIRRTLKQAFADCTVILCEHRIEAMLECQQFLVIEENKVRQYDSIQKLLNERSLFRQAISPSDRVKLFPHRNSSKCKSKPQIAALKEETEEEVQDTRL

As to `Cc1cccc(-n2nc(C(C)C)c3c(N4CCCC4)cc(C(=O)O)nc32)c1` [compound 173, 1-(3-methylphenyl)-3-(propan-2-yl)-4-(pyrrolidin-1-yl)-1H-pyrazolo[3,4-b]pyridine-6-carboxylic acid], the “% Activation” value was determined as 380.52% in experiment [1] (setting [3]) and 182.82% in experiment [2] (setting [5]). Moreover, the figures for the EC50 in experiment [1] (setting [4]) and in experiment [2] (setting [6]) were 2.53 µM and 2.95 µM, respectively.

For the compound `O=CN1CCCN(CC2CCN(c3cc(C(=O)O)nc4c3c(C3CCC3)nn4-c3ccccc3)CC2)CC1` [compound 839], the “% Activation” value in experiment [1] (setting [3]) turned out to be 437.3%; in experiment [2] (setting [7]), 275.7%. For the same compound, the EC50 in experiment [1] (setting [4]) was found to be 0.18 µM; in experiment [2] (setting [8]) it was 0.921 µM.

Consider `Cc1nn(-c2ccccc2)c2nc(C(=O)O)cc(N3CC4CC4C3)c12` (centres unmarked) [compound 304, 4-(3-azabicyclo[3.1.0]hexan-3-yl)-3-methyl-1-phenyl-1H-pyrazolo[3,4-b]pyridine-6-carboxylic acid], for which the “% Activation” value in experiment [1] (setting [3]) worked out at 254.9%; in experiment [2] (setting [5]) it was 98.425%. Further, the EC50 in experiment [1] (setting [4]) stood at 1.99 µM; in experiment [2] (setting [6]) it was 2.51 µM.

Regarding `Cc1c(C(=O)O)nc2c(c(C(C)C)nn2-c2ccc(F)cc2)c1N1CCC(N2CCOCC2)CC1` [compound 763, 1-(4-fluorophenyl)-5-methyl-4-[4-(morpholin-4-yl)piperidin-1-yl]-3-(propan-2-yl)-1H-pyrazolo[3,4-b]pyridine-6-carboxylic acid], the EC50 in experiment [1] turned out to be 1.67 µM; in experiment [2], 1.63 µM. Besides, the “% Activation” value in experiment [1] (setting [3]) worked out at 276.3%; in experiment [2] (setting [5]) it was 161.25%.

For `O=C(O)c1cc(N2CCC3(CC2)CC(F)(F)CO3)c2c(C3CCC3)nn(-c3ccccc3)c2n1` [compound 453, 3-cyclobutyl-4-(3,3-difluoro-1-oxa-8-azaspiro[4.5]decan-8-yl)-1-phenyl-1H-pyrazolo[3,4-b]pyridine-6-carboxylic acid], the figures for the “% Activation” value in experiment [1] (setting [3]) and in experiment [2] (setting [7]) were 275.35% and 110.68%, respectively. Further, the 50% effective concentration (EC50) was 0.656 µM in experiment [1] (setting [4]) and 0.716 µM in experiment [2] (setting [8]).

In the case of `Cc1cccc(-n2nc(C(C)C)c3c(N4CCC5(CC4)COC5)cc(C(=O)O)nc32)c1` [compound 202, 1-(3-methylphenyl)-4-(2-oxa-7-azaspiro[3.5]nonan-7-yl)-3-(propan-2-yl)-1H-pyrazolo[3,4-b]pyridine-6-carboxylic acid], the “% Activation” value in experiment [1] (setting [3]) stood at 309.3%; in experiment [2] (setting [5]), 136.8%. Also, the 50% effective concentration (EC50) turned out to be 0.609 µM in experiment [1] (setting [4]) and 0.795 µM in experiment [2] (setting [6]).

For the compound `O=C(O)c1cc(OCC2CCC(F)(F)CC2)c2c(C3CCC3)nn(-c3ccccc3)c2n1` [compound 616, 3-cyclobutyl-4-[(4,4-difluorocyclohexyl)methoxy]-1-phenyl-1H-pyrazolo[3,4-b]pyridine-6-carboxylic acid], the “% Activation” value is 389.95% in experiment [1] (setting [3]) and 144.2% in experiment [2] (setting [7]). Besides, the figures for the 50% effective concentration (EC50) in experiment [1] (setting [4]) and in experiment [2] (setting [8]) were 0.0833 µM and 0.116 µM, respectively.

Take `CC(C)c1nn(-c2cccc(C(F)(F)F)c2)c2nc(C(=O)O)cc(-c3ccc(N4CCC(C#N)CC4)nc3)c12` [compound 260, 4-[6-(4-cyanopiperidin-1-yl)pyridin-3-yl]-3-(propan-2-yl)-1-[3-(trifluoromethyl)phenyl]-1H-pyrazolo[3,4-b]pyridine-6-carboxylic acid]: the results for the “% Activation” value in experiment [1] (setting [3]) and in experiment [2] (setting [5]) were 554.15% and 326.4%, respectively. Besides, the EC50 worked out at 0.517 µM in experiment [1] (setting [4]) and 0.784 µM in experiment [2] (setting [6]).

In the case of `CN(C)CCCOc1cc(C(=O)O)nc2c1c(C1CCC1)nn2-c1ccccc1` [compound 635, 3-cyclobutyl-4-[3-(dimethylamino)propoxy]-1-phenyl-1H-pyrazolo[3,4-b]pyridine-6-carboxylic acid], the figures for the “% Activation” value in experiment [1] (setting [3]) and in experiment [2] (setting [7]) were 233.85% and 86.1%, respectively. Moreover, the values for the concentration for a half-maximal effect (EC50) in experiment [1] (setting [4]) and in experiment [2] (setting [8]) were 2.11 µM and 3.33 µM, respectively.

In the case of `COCCOCC1(F)CCN(c2cc(C(=O)O)nc3c2c(C2CCC2)nn3-c2ccccc2)CC1` [compound 459, 3-cyclobutyl-4-{4-fluoro-4-[(2-methoxyethoxy)methyl]piperidin-1-yl}-1-phenyl-1H-pyrazolo[3,4-b]pyridine-6-carboxylic acid], the “% Activation” value amounted to 319.8% in experiment [1] (setting [3]) and 152.05% in experiment [2] (setting [7]). Also, the concentration for a half-maximal effect (EC50) in experiment [1] (setting [4]) was 0.38 µM; in experiment [2] (setting [8]), 0.653 µM.

Turning to `Cc1nn(-c2ccccc2)c2nc(C(=O)O)cc(OC[C@@H](F)C3CCOCC3)c12` [compound 335, 4-[(2S)-2-fluoro-2-(oxan-4-yl)ethoxy]-3-methyl-I-phenyl-1H-pyrazolo[3,4-b]pyridine-6-carboxylic acid], the “% Activation” value in experiment [1] (setting [3]) was 259.25%; in experiment [2] (setting [5]), 100.33%. In addition, the figures for the EC50 in experiment [1] (setting [4]) and in experiment [2] (setting [6]) were 1.38 µM and 1.61 µM, respectively.

`CC(C1CCN(c2cc(C(=O)O)nc3c2c(C2CCC2)nn3-c2ccc(F)cc2)CC1)N1CCOCC1` (centres unmarked) [compound 805, 3-cyclobutyl-1-(4-fluorophenyl)-4-{4-[1-(morpholin-4-yl)ethyl]piperidin-1-yl}-1H-pyrazolo[3,4-b]pyridine-6-carboxylic acid]: the “% Activation” value in experiment [1] (setting [3]) is 671%; in experiment [2] (setting [7]) it was 364%. Besides, the half-maximal effective concentration (EC50) in experiment [1] (setting [4]) was determined as 0.0474 µM; in experiment [2] (setting [8]), 0.0727 µM.

As for `CC(C)c1nn(-c2cccc(F)c2)c2nc(C(=O)O)cc(-c3ccc(N4CCC(C#N)CC4)cc3)c12` [compound 286, 4-[4-(4-cyanopiperidin-1-yl)phenyl]-1-(3-fluorophenyl)-3-(propan-2-yl)-1H-pyrazolo[3,4-b]pyridine-6-carboxylic acid], the “% Activation” value amounted to 448.23% in experiment [1] (setting [3]) and 259.83% in experiment [2] (setting [5]). In addition, the EC50 was 0.256 µM in experiment [1] (setting [4]) and 0.544 µM in experiment [2] (setting [6]).

On to `CN(C)c1ccc(-n2nc(C3CCC3)c3c(-c4ccc(N5CCOCC5)cc4)cc(C(=O)O)nc32)cc1` [compound 357, 3-cyclobutyl-1-[4-(dimethylamino)phenyl]-4-[4-(morpholin-4-yl)phenyl]-1H-pyrazolo[3,4-b]pyridine-6-carboxylic acid], for which the “% Activation” value in experiment [1] (setting [3]) turned out to be 274.8%; in experiment [2] (setting [5]), 113.47%. For the same compound, the half-maximal effective concentration (EC50) came to 0.806 µM in experiment [1] (setting [4]) and 0.885 µM in experiment [2] (setting [6]).

For the compound `O=C(O)c1cc(N2CC3(CCOCC3)C2)c2c(C3CCC3)nn(-c3ccccc3)c2n1` [compound 425, 3-cyclobutyl-4-(7-oxa-2-azaspiro[3.5]nonan-2-yl)-1-phenyl-1H-pyrazolo[3,4-b]pyridine-6-carboxylic acid], the figures for the “% Activation” value in experiment [1] (setting [3]) and in experiment [2] (setting [7]) were 262.45% and 123.35%, respectively. For the same compound, the EC50 in experiment [1] (setting [4]) stood at 0.349 µM; in experiment [2] (setting [8]) it was 0.99 µM.

`CC(=O)N1CCC(c2cc(C(=O)O)nc3c2c(C)nn3-c2ccccc2)CC1` [compound 138, 4-(1-acetylpiperidin-4-yl)-3-methyl-1-phenyl-1H-pyrazolo[3,4-b]pyridine-6-carboxylic acid]: the entries for the “% Activation” value in experiment [1] (setting [3]) and in experiment [2] (setting [5]) were 133.3% and 12.11%, respectively. Also, the EC50 in experiment [1] (setting [4]) and in experiment [2] (setting [6]) was > 10 µM each time.

Turning to `Cc1nn(-c2cccc(C(F)(F)F)c2)c2nc(C(=O)O)cc(-c3ccc(N4CCOCC4)cc3)c12` [compound 22, 3-methyl-4-[4-(morpholin-4-yl)phenyl]-1-[3-(trifluoromethyl)phenyl]-1H-pyrazolo[3,4-b]pyridine-6-carboxylic acid], the “% Activation” value in experiment [1] (setting [3]) was found to be 310.95%; in experiment [2] (setting [5]), 131.28%. Further, the EC50 amounted to 0.995 µM in experiment [1] (setting [4]) and 1.01 µM in experiment [2] (setting [6]).

Take `O=C(O)c1cc(N2CCC3(CCNC3=O)C2)c2c(C3CCC3)nn(-c3ccccc3)c2n1` (centres unmarked) [compound 537, 3-cyclobutyl-4-(6-oxo-2,7-diazaspiro[4.4]nonan-2-yl)-1-phenyl-1H-pyrazolo[3,4-b]pyridine-6-carboxylic acid]: the “% Activation” value in experiment [1] (setting [3]) is 191.2%; in experiment [2] (setting [7]), 45.36%. The EC50 in experiment [1] (setting [4]) and in experiment [2] (setting [8]) was 3.33 µM in each case.

Turning to `N#CC1CCN(c2ccc(-c3cc(C(=O)O)nc4c3c(C3CCC3)nn4-c3ccnc(N4CCCC4)c3)cn2)CC1` [compound 413, 4-[6-(4-cyanopiperidin-1-yl)pyridin-3-yl]-3-cyclobutyl-1-[2-(pyrrolidin-1-yl)pyridin-4-yl]-1H-pyrazolo[3,4-b]pyridine-6-carboxylic acid], the “% Activation” value in experiment [1] (setting [3]) is 392.2%; in experiment [2] (setting [7]) it was 216.65%. Besides, the figures for the EC50 in experiment [1] (setting [4]) and in experiment [2] (setting [8]) were 0.338 µM and 0.527 µM, respectively.

Turning to `COCCN(C)c1ccc(-c2cc(C(=O)O)nc3c2c(C(C)C)nn3-c2cccc(N3CCOCC3)c2)cc1` [compound 188, 4-{4-[(2-methoxyethyl)(methyl)amino]phenyl}-1[3-(morpholin-4-yl)phenyl]-3-(propan-2-yl)-1H-pyrazolo[3,4-b]pyridine-6-carboxylic acid], the “% Activation” value is given as 432.9% in experiment [1] (setting [3]) and 282.4% in experiment [2] (setting [5]). Besides, the EC50 was found to be 0.499 µM in experiment [1] (setting [4]) and 0.636 µM in experiment [2] (setting [6]).

For orientation: EC50 means the concentration giving half of the maximal effect.
